Measurements published in ChEMBL document CHEMBL1201862, “PubChem BioAssay data set” (2004).
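How tested: cells in 96-well plates exposed to compound for 48 hours at five concentrations. At the GI50, growth is halved.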 Active and inactive are the calls of the source. Cut-off read from the data, not from the text of the source: active = GI50 up to about 1.1 µM and inactive = higher.

Assays:
Test in all cases: inhibition of tumour cell growth, NCI panel, 48 h
MDA-N = test system: MDA-N
Hs-578T = test system: Hs-578T
PC-3 = test system: PC-3
DU-145 = test system: DU-145
MDA-MB-435 = test system: MDA-MB-435
T47D = test system: T47D
BT-549 = test system: BT-549
LXFL 529 = test system: LXFL 529
RXF 631 = test system: RXF 631

Measured: GI50

COc1ccc(N2C(=O)C3c4[nH]c5cc(C)ccc5c4C4CCC(C(C)(C)C)CC4C3C2=O)cc1 (configuration not stated)
inactive: MDA-N > 10 µM | Hs-578T 3.08 µM | PC-3 5.24 µM | DU-145 > 10 µM | MDA-MB-435 > 10 µM | T47D > 10 µM

O=C(O)CN1CCCC(Cc2c[nH]c3ccccc23)C1 (configuration not stated)
inactive: MDA-N > 100 µM | Hs-578T > 100 µM | PC-3 > 100 µM | DU-145 > 100 µM | BT-549 > 100 µM | MDA-MB-435 > 100 µM

O=C(O)c1cccc2cccc(-c3c4ccc(=O)cc-4oc4cc(O)ccc34)c12
inactive: MDA-N 71 µM | Hs-578T 93.1 µM | PC-3 > 100 µM | DU-145 > 100 µM | BT-549 > 100 µM | MDA-MB-435 > 100 µM | T47D > 100 µM

O=C(c1ccccc1)c1cn(/N=C\c2ccccc2)c(=O)nc1-c1ccccc1
inactive: LXFL 529 > 100 µM

O=C1C[C@H](c2ccccc2)C2(C(=O)c3ccccc3C2=O)[C@@H](c2ccccc2)C1
inactive: MDA-N 16.2 µM | Hs-578T 17.1 µM | PC-3 10.8 µM | DU-145 48.6 µM | BT-549 19.6 µM | MDA-MB-435 > 10 µM | T47D 43.1 µM

CC1OC(OC2C(OC(=O)[C@@H]3CC(C)(C)C[C@H]4C5=CC[C@@H]6[C@@]7(C)C[C@H](O)[C@H](OC8OC(CO)C(O)C(O)C8O)[C@@](C)(CO)[C@@H]7[C@H](O)C[C@@]6(C)[C@]5(C)CC[C@@]34C)OCC(O)C2O)C(O)C(O)C1O (some centres not stated)
inactive: MDA-N > 7.5 µM | Hs-578T > 7.5 µM | PC-3 > 7.5 µM | DU-145 > 7.5 µM | BT-549 > 7.5 µM | MDA-MB-435 > 7.5 µM | T47D > 7.5 µM

CN(C)CCN(/C(=N/c1ccccc1)N1CCCC1)c1ccccc1
inactive: MDA-N 4.1 µM | Hs-578T > 100 µM | PC-3 19.8 µM | DU-145 > 100 µM | BT-549 > 100 µM | MDA-MB-435 15.5 µM | T47D > 100 µM

C=CC(OCC)(OCC)OCC
inactive: LXFL 529 77.3 µM | RXF 631 > 100 µM

CC1=C(C(=O)N[C@@H](CC(C)C)C(=O)O)N2C(=O)[C@@H](NC(=O)C(N)c3ccccc3)[C@H]2SC1 (some centres not stated)
inactive: MDA-N > 100 µM | Hs-578T > 100 µM | PC-3 > 100 µM | DU-145 > 100 µM | BT-549 > 100 µM | MDA-MB-435 > 100 µM | T47D > 100 µM

CC(=O)N/C(=C\c1ccc(/C=C(\NC(C)=O)C2=NC3C(=O)c4ccccc4C(=O)C3N2)cc1)C1=NC2C(=O)c3ccccc3C(=O)C2N1 (configuration not stated)
inactive: LXFL 529 42.4 µM | RXF 631 19.7 µM

O=C1c2ccccc2C(=O)c2c1ccc1c2N=C(c2ccc(F)cc2)CC(c2ccc(Cl)c(Cl)c2)N1 (configuration not stated)
inactive: LXFL 529 16 µM

NC(=O)Nc1cc(O)ccc1/N=N/c1ccc(S(=O)(=O)Nc2ccccn2)cc1
inactive: LXFL 529 > 100 µM

O=C1OC(=O)C2C1C(c1ccccc1[N+](=O)[O-])C=C(c1ccco1)N2c1ccncc1 (configuration not stated)
inactive: MDA-N 4.52 µM | Hs-578T > 25.9 µM | PC-3 13.3 µM | DU-145 7.01 µM | BT-549 11.6 µM | MDA-MB-435 8.39 µM | T47D 4.97 µM

CC(C)C1CNC(=O)C2(/C=N/C(C(C)C)CNC(=O)C3(/C=N/1)CCCO3)CCCO2 (configuration not stated)
inactive: MDA-N > 10 µM | Hs-578T > 10 µM | PC-3 > 10 µM | DU-145 > 10 µM | BT-549 > 10 µM | MDA-MB-435 > 10 µM | T47D > 10 µM

Cn1cnnc1Sc1c([N+](=O)[O-])nc(-c2ccc([N+](=O)[O-])cc2)n1C
inactive: LXFL 529 13.8 µM | RXF 631 17.7 µM

Nc1c(Cl)c([N+](=O)[O-])cc2c1OCCCCO2
inactive: MDA-N > 100 µM | Hs-578T > 100 µM | PC-3 > 100 µM | DU-145 > 100 µM | MDA-MB-435 > 100 µM | T47D > 100 µM

CCC1C[N+]23CCc4c([nH]c5ccccc45)C2CC1CC3 (configuration not stated)
inactive: LXFL 529 33.8 µM

Cc1cc(NS(=O)(=O)c2ccc(Nc3c4ccccc4nc4c(C(=O)N5CCN(CCO)CC5)ccc(Cl)c34)cc2)no1
inactive: RXF 631 83.9 µM

COc1cc(OC)c(SSCCCCS(=O)O)c(OC)c1
inactive: LXFL 529 12.2 µM | RXF 631 > 10 µM

O=C1/C(=C/c2ccc(Cl)cc2)CNC/C1=C\c1ccc(Cl)cc1
inactive: MDA-N 2.71 µM | Hs-578T 3.47 µM | PC-3 2.97 µM | DU-145 2.65 µM | BT-549 1.18 µM | MDA-MB-435 2.82 µM | T47D 5 µM
